Experimental data taken from ChEMBL document CHEMBL1201862, “PubChem BioAssay data set” (2004).
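Cultured in 96-well plates, cells were exposed to test compound for 48 hours across five concentrations. At the GI50, growth is halved.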 Calls of active or inactive are those of the source. No stated cut-off is given here; in the data, active = GI50 up to about 1.1 µM and inactive = higher.

What was measured:
Assay in all cases: DTP human tumour cell line panel, 48 h
MDA-MB-435 = system: MDA-MB-435
SNB-19 = system: SNB-19
M14 = system: M14
NCI-H23 = system: NCI-H23
SF-539 = system: SF-539
SN12C = system: SN12C
TK-10 = system: TK-10
ACHN = system: ACHN
NCI-H226 = system: NCI-H226
LOX IMVI = system: LOX IMVI
MCF7 = system: MCF7
U-251 = system: U-251
K562 = system: K562
NCI-H460 = system: NCI-H460
RXF 393 = system: RXF 393
SK-MEL-2 = system: SK-MEL-2
PC-3 = system: PC-3
Malme-3M = system: Malme-3M
NCI-H522 = system: NCI-H522
UO-31 = system: UO-31

Structure (SMILES) | GI50 (MDA-MB-435) | GI50 (SNB-19) | GI50 (M14) | GI50 (NCI-H23) | GI50 (SF-539) | GI50 (SN12C) | GI50 (TK-10) | GI50 (ACHN) | GI50 (NCI-H226) | GI50 (LOX IMVI) | GI50 (MCF7) | GI50 (U-251) | GI50 (K562) | GI50 (NCI-H460) | GI50 (RXF 393) | GI50 (SK-MEL-2) | GI50 (PC-3) | GI50 (Malme-3M) | GI50 (NCI-H522) | GI50 (UO-31)
CC(=O)N(CN1C(=O)CCC1C(=O)O)c1ccccc1Cl (stereo not given) | > 100 µM (inactive) | > 100 µM (inactive) | > 100 µM (inactive) | > 100 µM (inactive) | > 100 µM (inactive) | > 100 µM (inactive) | > 100 µM (inactive) | > 100 µM (inactive) | > 100 µM (inactive) | > 100 µM (inactive) | > 100 µM (inactive) | > 100 µM (inactive) | > 100 µM (inactive) | > 100 µM (inactive) | > 100 µM (inactive) | > 100 µM (inactive) | > 100 µM (inactive) | > 100 µM (inactive) | > 100 µM (inactive) | > 100 µM (inactive)
O=S(=O)(NC1OCCCC1I)c1ccccc1 (stereo not given) | > 100 µM (inactive) | > 100 µM (inactive) |  | > 100 µM (inactive) | > 100 µM (inactive) | > 100 µM (inactive) | > 100 µM (inactive) | > 100 µM (inactive) | > 100 µM (inactive) | 84.9 µM (inactive) | > 100 µM (inactive) | > 100 µM (inactive) | > 100 µM (inactive) | > 100 µM (inactive) | > 100 µM (inactive) | > 100 µM (inactive) | > 100 µM (inactive) | > 100 µM (inactive) | > 100 µM (inactive) | > 100 µM (inactive)
COc1ccc(Nc2nc3ccc(C(F)(F)F)cc3nc2C(=O)O)cc1OC | 32.7 µM (inactive) | 23.6 µM (inactive) |  | 24.4 µM (inactive) |  | 34.9 µM (inactive) |  | 35.2 µM (inactive) | 36.7 µM (inactive) | 28.8 µM (inactive) | 33.9 µM (inactive) | 27.4 µM (inactive) | 29 µM (inactive) | 21.2 µM (inactive) | 29.6 µM (inactive) | 17.2 µM (inactive) | 26.5 µM (inactive) | 31.7 µM (inactive) | 25.8 µM (inactive) | 19.2 µM (inactive)
Cc1c2cnccc2c(C)c2c1c1ccccc1n2CCCN | 0.129 µM (active) | 0.424 µM (active) | 0.276 µM (active) | 0.474 µM (active) | 0.582 µM (active) | 0.401 µM (active) | 0.326 µM (active) | 0.243 µM (active) | 0.873 µM (active) | 0.109 µM (active) | 0.282 µM (active) | 0.258 µM (active) | 0.138 µM (active) |  | 0.301 µM (active) | 0.721 µM (active) | 0.121 µM (active) | 0.982 µM (active) | 0.447 µM (active) | 0.83 µM (active)
O=[N+]([O-])c1cccc(-c2nc(-c3ccccc3)c(-c3ccccc3)[nH]2)c1 | > 100 µM (inactive) | > 100 µM (inactive) | > 100 µM (inactive) | > 100 µM (inactive) | > 100 µM (inactive) | > 100 µM (inactive) | > 100 µM (inactive) |  | > 100 µM (inactive) | > 100 µM (inactive) | > 100 µM (inactive) | > 100 µM (inactive) | > 100 µM (inactive) | > 100 µM (inactive) | > 100 µM (inactive) | > 100 µM (inactive) | > 100 µM (inactive) | > 100 µM (inactive) | > 100 µM (inactive) | > 100 µM (inactive)
COc1ccc(-c2nc(O)c3ccccc3n2)cc1 | > 100 µM (inactive) | > 100 µM (inactive) | > 100 µM (inactive) | 87.5 µM (inactive) | 45.9 µM (inactive) | 61.2 µM (inactive) | > 100 µM (inactive) | > 10 µM (inactive) | 38.6 µM (inactive) | 39.8 µM (inactive) | 35.9 µM (inactive) | 24.8 µM (inactive) | > 100 µM (inactive) |  | > 100 µM (inactive) | > 100 µM (inactive) | > 100 µM (inactive) | > 100 µM (inactive) | 52.7 µM (inactive) | > 100 µM (inactive)
Clc1ccc(C(c2ccc(Cl)cc2)N2CCNCC2)cc1 | 1.93 µM (inactive) | 5.13 µM (inactive) | 1.73 µM (inactive) | 5.24 µM (inactive) | 1.87 µM (inactive) | 2.89 µM (inactive) | 1.64 µM (inactive) | 2.16 µM (inactive) |  | 1.92 µM (inactive) | 1.91 µM (inactive) | 2.02 µM (inactive) | 1.58 µM (inactive) | 2.05 µM (inactive) | 4.22 µM (inactive) | 1.85 µM (inactive) | 2.45 µM (inactive) | 1.58 µM (inactive) | 1.78 µM (inactive) | 2.02 µM (inactive)
CC[C@H](CO)Nc1nc(NCc2ccccc2)c2ncn(C(C)C)c2n1 [SELICICLIB] | 13.3 µM (inactive) |  | 27.9 µM (inactive) | 13.2 µM (inactive) | 15.8 µM (inactive) |  | 64.1 µM (inactive) | 12.8 µM (inactive) | 19.2 µM (inactive) | 14 µM (inactive) | 13.5 µM (inactive) | 53.8 µM (inactive) | 53 µM (inactive) | 27.9 µM (inactive) | 4.9 µM (inactive) | 17.5 µM (inactive) | 19.9 µM (inactive) | 19.3 µM (inactive) | 16.4 µM (inactive) | 13.6 µM (inactive)
